These results are taken from patent US20110065760A1, “COMPOUNDS FOR THE INHIBITION OF ROTAMASES AND USE THEREOF” (Jerini AG, priority 2002, published 2011).

Series [1] in a line: WST-1 cytotoxicity assay, HL-60. Format: cell-based. The following applies: human, HL-60 cells (acute myeloid leukemia); WST-1, 48 h incubation; read-out: EC50 class, cytotoxic effect, CL-1 (HL-60). On the procedure: (§1) For this cytotoxic evaluation of the compounds the commercial available WST-1 assay (Roche) was used according to the manufacturer's instructions. The assay is based on the cleavage of the tetrazolium salt WST-1 by mitochondrial dehydrogenases found in viable cells. In general compounds were added to cells cultured in 96-well plates at 37° C. After 48 h of incubation 10 μl of WST-1 solution was added. The formazan dye was analyzed with an ELISA plate reader at (450 vs. 620) nm. CL-1: human acute myeloid leukemia, HL-60 CL-2: human cervix carcinoma, HeLa CL-3: human prostate carcinoma, PC-3 CL-4: human colon adenocarcinoma, Caco-2 CL-5: human breast adenocarcinoma, MCF-7

Series [2] can be described thus: WST-1 cytotoxicity assay, MCF-7. The following applies: human, MCF-7 cells (breast adenocarcinoma); WST-1, 48 h incubation; read-out: EC50 class, cytotoxic effect, CL-5 (MCF-7). Format: cell-based. The method, then: as §1
(In general: Tetrazolium dyes change colour on reduction, which living cells bring about.)

Another series concerns the target hPin1 (Homo sapiens, UniProt Q13526). Kind of series: protease-coupled PPIase assay, hPin1. Format: biochemical. Conditions: 6 nM hPin1, substrate Ac-Ala-Ala-Ser(PO3H2)-Pro-Arg-pNA, trypsin, pH 7.8, 6° C.; read-out: IC50 class, Target T-1 (hPin1).
The nature of series [3]: WST-1 cytotoxicity assay, HeLa. The following applies: human, HeLa cells (cervix carcinoma); WST-1, 48 h incubation; read-out: EC50 class, cytotoxic effect, CL-2 (HeLa). In kind it is cell-based. The method, then: as §1
The nature of series [4]: WST-1 cytotoxicity assay, PC-3. Format: cell-based. The following applies: human, PC-3 cells (prostate carcinoma); WST-1, 48 h incubation; read-out: EC50 class, cytotoxic effect, CL-3 (PC-3). On the procedure:
as §1

The next series addresses hFKBP12 (Homo sapiens, UniProt P62942). Kind of series: protease-coupled PPIase assay, hFKBP12. Format: biochemical. Conditions: 20 nM hFKBP12, substrate Suc-Ala-Phe-Pro-Phe-pNA, chymotrypsin, pH 7.8, 6° C.; read-out: IC50 class, Target T-2 (hFKBP12).
The target in another series is hCyp18 (Homo sapiens, UniProt P62937). Kind of series: protease-coupled PPIase assay, hCyp18. In kind it is biochemical. The following applies: 10 nM hCyp18, substrate Suc-Ala-Phe-Pro-Phe-pNA, chymotrypsin, pH 7.8, 6° C.; read-out: IC50 class, Target T-3 (hCyp18).
In a further series the target is LpCyp18 (Legionella pneumophila, UniProt Q5ZRZ4). The series is described as follows: biochemical. Conditions: IC50 class, Target T-4 (LpCyp18).
The target of the next series is EcParvulin (Escherichia coli, UniProt P0A9L5). Kind of series: protease-coupled PPIase assay, EcParvulin. Format: biochemical.
Another series addresses T1, Papain (Carica papaya, UniProt P00784).
T1 sequence (P00784 134-345): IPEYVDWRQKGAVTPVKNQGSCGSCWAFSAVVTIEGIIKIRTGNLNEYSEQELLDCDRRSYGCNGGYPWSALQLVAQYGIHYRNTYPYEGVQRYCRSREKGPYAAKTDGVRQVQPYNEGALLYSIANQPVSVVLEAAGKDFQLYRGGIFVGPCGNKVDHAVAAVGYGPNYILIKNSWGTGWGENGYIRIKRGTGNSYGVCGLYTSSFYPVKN
Kind of series: papain assay. In kind it is biochemical. The following applies: 16 μg/ml papain, 2 mM Bz-DL-Arg-pNA, pH 6.5, 30° C., 30 min incubation; read-out: IC50 class, Target T-6 (Papain). The method, then:
In order to investigate the impact of some of the inventive compounds on the activity of key proteases the following assay was performed: Protease activities were measured spectrophotometrically at 30° C. according to Schomburg and Salzmann (Schomburg, B.; Salzmann M. GBF: Enzyme Handbook. Springer Verlag, Berlin Heidelberg, 1991) and Bergmeyer et al. (Bergmeyer, H. U.; Bergmeyer, J.; Graβl, M. Methods of Enzymatic Analysis, Vol. V Enzymes 3: Peptides, Proteinases and Their Inhibitors. pp 55-371, VCH, Weinheim, 1988). The release of 4-nitroaniline was determined at 390 nm with a Spectramax Plus UV/Vis spectrophotometer (Molecular Devices). The cathepsin B assay was performed in a reaction mixture containing 0.2 μg/ml cathepsin B, 2 mM Z-Arg-Arg-pNA in 88 mM KH2PO4, 12 mM Na2HPO4, 1.33 mM EDTA, 0.03% Brij 35 (pH 5.8). The trypsin assay was carried out in a reaction mixture containing 0.1 μg/ml trypsin and 120 μM Ac-Ala-Ala-Ser(PO3H2)-Pro-Arg-pNA in 35 mM HEPES (pH 7.8) and the papain assay in a mixture consisting of 16 μg/ml papain and 2 mM Bz-DL-Arg-pNA in 10 mM Na2HPO4, 2 mM L-Cys, 5 mM EDTA (pH 6.5). In general, reactions were started by addition of peptide substrate after a 30 min incubation of 1-100 μM effector with given concentrations of enzyme.

Series [5] deals with tumor cell lines (HL-60, HeLa, PC-3, Caco-2, MCF-7). Kind of series: WST-1 cytotoxicity assay, tumor cell lines (panel statement). Format: cell-based, human. The following applies: WST-1, 48 h; table 4. On the procedure: as §1

The structures appear in SMILES notation. Read-outs that look alike come from different tables or passages of the source.

Chain of hPin1 (Q13526 whole entry): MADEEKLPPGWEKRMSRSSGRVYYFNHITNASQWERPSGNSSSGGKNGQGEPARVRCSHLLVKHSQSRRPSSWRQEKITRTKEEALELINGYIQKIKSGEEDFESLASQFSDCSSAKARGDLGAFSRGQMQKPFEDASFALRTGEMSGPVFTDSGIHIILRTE
Chain of LpCyp18 (Q5ZRZ4 1-164): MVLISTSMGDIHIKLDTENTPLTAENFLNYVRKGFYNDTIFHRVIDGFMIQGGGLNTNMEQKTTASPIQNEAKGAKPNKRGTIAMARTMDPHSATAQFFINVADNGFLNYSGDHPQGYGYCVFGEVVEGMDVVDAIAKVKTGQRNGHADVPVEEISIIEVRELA
Chain of hCyp18 (P62937 whole entry): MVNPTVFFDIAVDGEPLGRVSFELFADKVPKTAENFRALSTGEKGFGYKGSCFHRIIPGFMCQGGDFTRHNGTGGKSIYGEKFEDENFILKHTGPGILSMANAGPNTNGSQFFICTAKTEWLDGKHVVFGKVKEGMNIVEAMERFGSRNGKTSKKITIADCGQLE
Chain of EcParvulin (P0A9L5 whole entry): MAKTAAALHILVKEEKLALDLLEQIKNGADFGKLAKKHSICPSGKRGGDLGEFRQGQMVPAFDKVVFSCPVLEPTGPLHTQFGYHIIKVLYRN
Chain of hFKBP12 (P62942 whole entry): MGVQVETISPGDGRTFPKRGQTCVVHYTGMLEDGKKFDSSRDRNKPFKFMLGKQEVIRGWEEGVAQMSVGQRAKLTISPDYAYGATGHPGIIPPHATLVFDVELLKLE

As a reminder, the EC50 is the concentration at which the effect is half-maximal. As for `CC(C)(C)CC(C)(C)NC(=O)Nc1cc(Cl)ccc1O` [Compound 6], the results for the EC50 at 48 h in series [1] and in series [2] were 10 to 50 µM and < 10 µM, respectively.

Take `CC(C)(C)CC(C)(C)NC(=O)Nc1cccc(Cl)c1O` [Compound 54]: the EC50 at 48 h in series [1] was 10 to 50 µM; in [2], < 10 µM.

With `CC(C)(C)CC(C)(C)NC(=O)Nc1ccc(F)c(F)c1O` [Compound 150], the values for the EC50 at 48 h in [1] and in series [2] were 10 to 50 µM and < 10 µM, respectively.

With `Oc1c(Cl)cc(Cl)cc1NC(=S)Nc1ccccc1C(F)(F)F` [Compound 221], the EC50 at 48 h in [1] and in series [2] was 10 to 50 µM throughout.

By IC50 is commonly meant the concentration at which inhibition is half-maximal. As to `Cc1c(Cl)cc(NC(=S)NCc2ccccc2)c(O)c1Cl` [Compound 254], on hPin1, the IC50 was < 1 µM. The EC50 at 48 h in [1], in [3], in series [4] and in series [2] was 10 to 50 µM throughout.

Take `Oc1c(Cl)cc(Cl)cc1NCc1ccccc1Sc1ccc(Cl)cc1` [Compound 329]: the EC50 at 48 h in series [1], in series [3], in [4] and in series [2] was 10 to 50 µM throughout.

Turning to `Oc1c(Cl)cc(Cl)cc1NCc1ccccc1Sc1ccccc1Cl` [Compound 332], the 50% effective concentration (EC50) at 48 h in [1], in series [3] and in series [4] was 10 to 50 µM throughout.

`Oc1c(Cl)cccc1NCc1ccccc1Sc1ccc(Cl)cc1` [Compound 343]: the IC50 at hPin1 was 1 to 10 µM; at hFKBP12, > 100 µM; on hCyp18 it was 10 to 50 µM; against LpCyp18 it was > 100 µM; against EcParvulin, > 100 µM; at Papain, > 100 µM.

On to `Cc1c(Cl)cc(NCc2ccccc2Sc2ccc(Cl)cc2)c(O)c1Cl` [Compound 371], for which the IC50 was < 1 µM at hPin1; > 100 µM at hFKBP12; 10 to 50 µM at hCyp18; > 100 µM against LpCyp18; 10 to 50 µM against EcParvulin; > 100 µM on Papain.

As to `Oc1c(NCc2ccccc2Sc2ccccc2Cl)ccc(F)c1F` [Compound 402], the EC50 at 48 h in [1], in [3] and in series [4] was 10 to 50 µM each time.

In the case of `Oc1c(NCc2ccccc2Sc2cccc(Cl)c2)ccc(F)c1F` [Compound 403], the figures for the concentration giving a half-maximal response (EC50) at 48 h in [1], in series [3] and in [4] were 10 to 50 µM, < 10 µM and < 10 µM, respectively.

`CC(O)c1cc(Cl)cc(NCc2ccccc2Sc2ccc(Cl)cc2)c1O` (centres unmarked) [Compound 413]: the EC50 at 48 h in series [1] is 10 to 50 µM; in [3] it was < 10 µM; in series [4] it was 10 to 50 µM.

Take `CCc1c(Cl)cc(NCc2ccccc2Sc2ccc(Cl)cc2)c(O)c1Cl` [Compound 441]: the IC50 on hPin1 was 1 to 10 µM; at hFKBP12, > 100 µM; on hCyp18, 10 to 50 µM; on LpCyp18, > 100 µM; against EcParvulin it was > 100 µM; on Papain it was > 100 µM.

`CC(C)(C)c1ccc(Oc2cccc(CNc3cc(Cl)cc(Cl)c3O)c2)cc1` [Compound 483]: the IC50 was 1 to 10 µM at hPin1; > 100 µM on hFKBP12; 10 to 50 µM at hCyp18; > 100 µM on LpCyp18; 50 to 100 µM at EcParvulin (20 nM EcParvulin, substrate Suc-Ala-Phe-Pro-Phe-pNA, chymotrypsin, pH 7.8, 6° C., read-out: IC50 class, Target T-5 (EcParv)). The EC50 at 48 h in [3] and in [4] was 10 to 50 µM throughout.

With `Oc1c(Cl)cc(Cl)cc1NCc1cccc(OCc2ccccc2)c1` [Compound 484], the EC50 at 48 h in series [1] is 10 to 50 µM; in [3] it was < 10 µM; in [4], < 10 µM.

Consider `COc1ccc(Oc2cccc(CNc3cc(Cl)cc(Cl)c3O)c2)cc1` [Compound 493], for which the EC50 at 48 h in series [1] was 10 to 50 µM; in series [3], < 10 µM; in series [4] it was < 10 µM.

Take `CCCCCCCCS(=O)(=O)Nc1cc(Cl)c(C)c(Cl)c1O` [Compound 563]: the IC50 was 1 to 10 µM at hPin1; > 100 µM at hFKBP12; > 100 µM on hCyp18; > 100 µM against LpCyp18; > 100 µM at EcParvulin; > 100 µM at Papain.

As for `Oc1ccccc1NCc1ccccc1Sc1ccc(Cl)cc1` [Compound 630], the values for the EC50 at 48 h in series [1], in series [3] and in series [4] were 10 to 50 µM, < 10 µM and < 10 µM, respectively.

`O=C(NCc1ccccc1)Nc1cc(Cl)c(O)c(NCc2ccccc2Sc2ccc(Cl)cc2)c1` [Compound 631]: the EC50 at 48 h in [1] is < 10 µM; in series [4], 10 to 50 µM.

Take `O=C(NCCc1ccccc1)Nc1cc(Cl)c(O)c(NCc2ccccc2Sc2ccc(Cl)cc2)c1` [Compound 632]: the values for the EC50 at 48 h in series [1] and in [4] were < 10 µM and 10 to 50 µM, respectively.

Consider `O=C(Nc1ccc(Cl)cc1)Nc1cc(Cl)c(O)c(NCc2ccccc2Sc2ccc(Cl)cc2)c1` [Compound 633], for which the EC50 at 48 h in series [1] and in [4] was < 10 µM throughout. In series [5], the “cytotoxic effect on the tumor cell lines tested” value is given as “particular relevance”.

In the case of `CC(C)(C)NC(=S)Nc1cc(-c2nc3ccccc3s2)cc(Cl)c1O` [Compound 640], the IC50 at hPin1 lay in the range of 1 to 10 µM. For the same compound, the EC50 at 48 h in [1] and in [2] was 10 to 50 µM each time.

For the compound `CCCCCNC(=O)Nc1ccc(C)cc1O` [Compound 643], the IC50 is 10 to 50 µM at hPin1; > 100 µM on hFKBP12; > 100 µM at hCyp18; > 100 µM at LpCyp18; > 100 µM against EcParvulin; > 100 µM on Papain.

As for `Oc1c(Cl)cc(-c2nc3ccccc3s2)cc1NC(=S)NC1CCCC1` [Compound 653], the EC50 at 48 h in series [1] is < 10 µM; in series [2] it was 10 to 50 µM.

On to `O=C(Nc1cc(Cl)c(O)c(NCc2ccccc2Sc2ccc(Cl)cc2)c1)N1CCOCC1` [Compound 654], for which the EC50 at 48 h was 10 to 50 µM in series [3] and < 10 µM in series [2].

For the compound `O=C(Nc1cc(Cl)c(O)c(Cl)c1)NC1CCCCC1` [Compound 710], the IC50 on hPin1 was < 1 µM; on hFKBP12, > 100 µM; at hCyp18 it was > 100 µM; against LpCyp18 it was > 100 µM; on EcParvulin, > 100 µM; at Papain it was > 100 µM.

`Cc1cccc(C)c1NC(=O)Nc1cc(Cl)c(O)c(Cl)c1` [Compound 716]: the IC50 on hPin1 was 1 to 10 µM; on hFKBP12, > 100 µM; at hCyp18 it was > 100 µM; against LpCyp18, > 100 µM; at EcParvulin, 10 to 50 µM; on Papain it was > 100 µM.
